Data from ChEMBL document CHEMBL1201862, “PubChem BioAssay data set” (2004).
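All cell lines were grown in 96-well plates and treated with compound for 48 hours. At the GI50, growth is halved.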 Activity calls are given as the source filed them. No stated cut-off is given here; in the data, active = GI50 up to about 1.1 µM and inactive = higher.

Tests used:
Test in all cases: inhibition of tumour cell growth, NCI panel, 48 h
[1] = test system: UO-31
[2] = test system: M19-MEL
[3] = test system: HCT-116
[4] = test system: A549
[5] = test system: XF498
[6] = test system: SNB-78
[7] = test system: Malme-3M
[8] = test system: K562
[9] = test system: ACHN
[10] = test system: SK-MEL-5
[11] = test system: LXFL 529
[12] = test system: OVCAR-8
[13] = test system: IGROV-1
[14] = test system: MOLT-4
[15] = test system: SR
[16] = test system: NCI-H226
[17] = test system: SK-MEL-2
[18] = test system: EKVX
[19] = test system: RXF 393
[20] = test system: SN12C

Measured: GI50

O=C(O)C(Cl)(Cl)Cl
inactive: [1] > 100 µM | [2] > 100 µM | [3] > 100 µM | [4] > 100 µM | [5] > 100 µM | [6] > 100 µM | [7] > 100 µM | [8] > 100 µM | [9] > 100 µM | [10] > 100 µM | [11] > 100 µM | [12] > 100 µM | [13] > 100 µM | [14] > 100 µM | [15] > 100 µM | [16] > 100 µM | [17] > 100 µM | [18] > 100 µM | [19] > 100 µM | [20] > 100 µM
